Measured values taken from PubChem BioAssay AID1963972 (Molecular Pharmacology Branch, DTP, NCI, 2024).
pIC50: −log10 of the molar value.

Test system: 945468-187-T-J2-PDC spheroids viability
Assay: Anticancer human tumor 945468-187-T-J2-PDC patient-derived rectal carcinoma cell line growth inhibition [PI3K]
Conditions: spheroids with HUVEC and MSC; for pIC50: curve of first compound; for viability, T/C: stronger effect = lower value; active = viability on the fitted dose curve at most 10% of control; inactive = the rest
How it was run: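 Three cell types, namely tumor cells, endothelial cells and mesenchymal stem cells, formed each spheroid. Combinations with four PI3K inhibitors were screened at clinically achievable concentrations decreasing by half-log, and spheroid viability was recorded.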

[1] = second compound 0.0316 µM, first compound 0.0316 µM
[2] = second compound 0.0316 µM, first compound 0.1 µM
[3] = second compound 0.0316 µM, first compound 0.316 µM
[4] = second compound 0.0316 µM, first compound 1 µM
[5] = second compound 0.0316 µM, first compound 3.16 µM
[6] = second compound 0.0316 µM, first compound 10 µM
[7] = second compound 0.1 µM, first compound 0.0316 µM
[8] = second compound 0.1 µM, first compound 0.1 µM
[9] = second compound 0.1 µM, first compound 0.316 µM
[10] = second compound 0.1 µM, first compound 1 µM
[11] = second compound 0.1 µM, first compound 3.16 µM
[12] = second compound 0.1 µM, first compound 10 µM
[13] = second compound 0.316 µM, first compound 0.0316 µM
[14] = second compound 0.316 µM, first compound 0.1 µM
[15] = second compound 0.316 µM, first compound 0.316 µM
[16] = second compound 0.316 µM, first compound 1 µM
[17] = second compound 0.316 µM, first compound 3.16 µM
[18] = second compound 0.316 µM, first compound 10 µM
[19] = second compound 1 µM, first compound 0.0316 µM
[20] = second compound 1 µM, first compound 0.1 µM
[21] = second compound 1 µM, first compound 0.316 µM
[22] = second compound 1 µM, first compound 1 µM
[23] = second compound 1 µM, first compound 3.16 µM
[24] = second compound 1 µM, first compound 10 µM
[25] = second compound 3.16 µM, first compound 0.0316 µM
[26] = second compound 3.16 µM, first compound 0.1 µM
[27] = second compound 3.16 µM, first compound 0.316 µM
[28] = second compound 3.16 µM, first compound 1 µM
[29] = second compound 3.16 µM, first compound 3.16 µM
[30] = second compound 3.16 µM, first compound 10 µM
[31] = second compound 10 µM, first compound 0.0316 µM
[32] = second compound 10 µM, first compound 0.1 µM
[33] = second compound 10 µM, first compound 0.316 µM
[34] = second compound 10 µM, first compound 1 µM
[35] = second compound 10 µM, first compound 3.16 µM
[36] = second compound 10 µM, first compound 10 µM
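Note: spheroids exposed to compounds for seven days before reading.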

C#Cc1c(F)ccc2cc(O)cc(-c3ncc4c(N5CC6CCC(C5)N6)nc(OCC56CCCN5CC(F)C6)nc4c3F)c12 (stereo unspecified) + CC(Nc1ncnc2nc[nH]c12)c1cc2cccc(Cl)c2c(=O)n1-c1ccccc1
< 5.00: pIC50 (second compound 0.0316 µM) | pIC50 (second compound 0.1 µM) | pIC50 (second compound 0.316 µM) | pIC50 (second compound 1 µM) | pIC50 (second compound 3.16 µM) | pIC50 (second compound 10 µM)
inactive: viability, T/C [1] 101% | viability, T/C [2] 99.8% | viability, T/C [3] 95.8% | viability, T/C [4] 86.4% | viability, T/C [5] 102% | viability, T/C [6] 117% | viability, T/C [7] 111% | viability, T/C [8] 110% | viability, T/C [9] 103% | viability, T/C [10] 134% | viability, T/C [11] 107% | viability, T/C [12] 106% | viability, T/C [13] 100% | viability, T/C [14] 116% | viability, T/C [15] 87.1% | viability, T/C [16] 95.3% | viability, T/C [17] 116% | viability, T/C [18] 111% | viability, T/C [19] 96.3% | viability, T/C [20] 104% | viability, T/C [21] 113% | viability, T/C [22] 106% | viability, T/C [23] 96.2% | viability, T/C [24] 114% | viability, T/C [25] 91% | viability, T/C [26] 98.6% | viability, T/C [27] 107% | viability, T/C [28] 125% | viability, T/C [29] 114% | viability, T/C [30] 105% | viability, T/C [31] 114% | viability, T/C [32] 140% | viability, T/C [33] 149% | viability, T/C [34] 99.7% | viability, T/C [35] 116% | viability, T/C [36] 112%

C=CC(=O)N1CCN(c2nc(=O)n(-c3c(C)ccnc3C(C)C)c3nc(-c4c(O)cccc4F)c(F)cc23)C(C)C1 (stereo unspecified) + CC(Nc1ncnc2nc[nH]c12)c1cc2cccc(Cl)c2c(=O)n1-c1ccccc1
inactive: viability, T/C [1] 103% | viability, T/C [2] 124% | viability, T/C [3] 100% | viability, T/C [4] 114% | viability, T/C [5] 111% | viability, T/C [6] 95.8% | viability, T/C [7] 97.5% | viability, T/C [8] 82.7% | viability, T/C [9] 91.5% | viability, T/C [10] 85.2% | viability, T/C [11] 93% | viability, T/C [12] 136% | viability, T/C [13] 109% | viability, T/C [14] 114% | viability, T/C [15] 96.3% | viability, T/C [16] 105% | viability, T/C [17] 106% | viability, T/C [18] 84.7% | viability, T/C [19] 87.6% | viability, T/C [20] 98.8% | viability, T/C [21] 113% | viability, T/C [22] 104% | viability, T/C [23] 107% | viability, T/C [24] 89.3% | viability, T/C [25] 94.6% | viability, T/C [26] 106% | viability, T/C [27] 104% | viability, T/C [28] 97.8% | viability, T/C [29] 99.6% | viability, T/C [30] 104% | viability, T/C [31] 124% | viability, T/C [32] 122% | viability, T/C [33] 116% | viability, T/C [34] 123% | viability, T/C [35] 92.4% | viability, T/C [36] 90.4%
< 5.00: pIC50 (second compound 0.0316 µM) | pIC50 (second compound 0.1 µM) | pIC50 (second compound 0.316 µM) | pIC50 (second compound 1 µM) | pIC50 (second compound 3.16 µM) | pIC50 (second compound 10 µM)

CC(Cn1ccc(-c2ccc(C#N)c(Cl)c2)n1)NC(=O)c1cc(C(C)O)[nH]n1 (stereo unspecified) + CC(Nc1ncnc2nc[nH]c12)c1cc2cccc(Cl)c2c(=O)n1-c1ccccc1
inactive: viability, T/C [1] 99.9% | viability, T/C [2] 75.6% | viability, T/C [3] 108% | viability, T/C [4] 104% | viability, T/C [5] 99.9% | viability, T/C [6] 89.3% | viability, T/C [7] 128% | viability, T/C [8] 105% | viability, T/C [9] 106% | viability, T/C [10] 95.3% | viability, T/C [11] 117% | viability, T/C [12] 127% | viability, T/C [13] 111% | viability, T/C [14] 86.3% | viability, T/C [15] 87% | viability, T/C [16] 89.3% | viability, T/C [17] 91% | viability, T/C [18] 91.6% | viability, T/C [19] 87.2% | viability, T/C [20] 97.8% | viability, T/C [21] 78.4% | viability, T/C [22] 88.9% | viability, T/C [23] 82.6% | viability, T/C [24] 106% | viability, T/C [25] 92.7% | viability, T/C [26] 94.1% | viability, T/C [27] 103% | viability, T/C [28] 89.6% | viability, T/C [29] 92.3% | viability, T/C [30] 85.3% | viability, T/C [31] 113% | viability, T/C [32] 104% | viability, T/C [33] 88.7% | viability, T/C [34] 111% | viability, T/C [35] 109% | viability, T/C [36] 108%
< 5.00: pIC50 (second compound 0.0316 µM) | pIC50 (second compound 0.1 µM) | pIC50 (second compound 0.316 µM) | pIC50 (second compound 1 µM) | pIC50 (second compound 3.16 µM) | pIC50 (second compound 10 µM)
